Measured values taken from patent publication US12258308B2, “Benzene derivative” (ONO PHARMACEUTICAL CO., LTD., priority 2018, dated 2025).

System: rat Schwann cells
Test: In vitro test using Schwann cells (Schwann cell differentiation promotion, MAG immunostaining)
Type: cell-based
Conditions: Rattus norvegicus, 72 h, 3 days, MAG-positive area/cell nuclei; for activity at 0.3 µM: compound 0.3 μmol/L, read-out: Schwann cell differentiation promotion rate (% of vehicle) 0.3 μmol/L; for activity at 3 µM: compound 3 μmol/L, read-out: Schwann cell differentiation promotion rate (% of vehicle) 3 μmol/L
Method: Biological Experiment Example 1: In Vitro Test Using Schwann Cells
• (1) Preparation of rat Schwann cells
A dorsal root ganglion (abbreviated as “DRG”, hereinafter) was excised from a newborn rat aged 0 to 2 days in a clean bench and was collected in DMEM. After the collection, the tube was centrifuged at 400 g, at room temperature for 3 minutes, then a supernatant was discarded, and a 0.25% collagenase solution was added. There resultant solution was incubated at 37° C. for 30 minutes to disperse and separate the excised DRG, and was then centrifuged at room temperature at 400 g for 3 minutes, then a supernatant was discarded, and then 0.25% Trypsin/EDTA and DNaseI were added. After the incubation at 37° C. for 30 minutes, trypsin was inactivated with DMEM supplemented with 10% FBS (10% FBS-DMEM), and centrifugation was carried out at room temperature at 400 g for 3 minutes. A supernatant was discarded, then 10% FBS-DMEM was added to the residue to prepare a cell suspension, and then the cell suspension was allowed to pass through a filter (diameter: 70 μm). The number of cells in the cell suspension which passed through the filter was counted to prepare a solution having a concentration of 2.0×10^5 cells/mL, and the suspension was seeded in a poly-D-lysine-coated 96-well black-clear plate in an amount of 100 μL/well and was then statically cultured in a CO2 incubator under the conditions including 5% of CO2, 95% of air and 37° C.
The culture medium in the cell culture plate was removed by suction using an aspirator, and then DMEM supplemented with 1% dialyzed FBS and 100 μmol/L dibutyryl cyclic AMP was added. Subsequently, a solution of a compound of the present invention dissolved in DMSO was added, and the resultant solution was statically cultured in a C02 incubator under the conditions including 5% of C02, 95% of air and a temperature of 37° C. The final concentration of the compound of the present invention in each well in the cell culture plate was adjusted to 0.1, 0.3, 1 or 3 μmol/L.
Three days after the treatment with the compound, formaldehyde was added to each well in the cell culture plate, and the cell culture plate was allowed to stand at room temperature for 30 minutes or longer. A supernatant was discarded, and then a 0.3% tritonX-100 solution was added to each well, and then the cell culture plate was allowed to stand at room temperature for 20 minutes or longer. A supernatant was discarded, then a 5-μg/mL anti-myeline-associated glycoprotein antibody (anti-MAG antibody) solution was added to each well, and then the cell culture plate was allowed to stand at room temperature for 60 minutes or longer or at 4° C. (acceptable range: 1 to 9° C.) overnight. Each well was washed with a 0.1% tritonX-100 solution three times, then a 10-μg/mL Alexa fluor 488 anti-mouse IgG solution was added to each well, and then the cell culture plate was allowed to stand at room temperature for 60 or longer or at 4° C. overnight. Each well was washed with a 0.1% tritonX-100 solution four times, and then a 1-μg/mL Hoechst33342 solution was added to each well to stain nuclei.
The Mag-positive area and the number of cell nuclei in a fluorescent image were calculated. With respect to each of the MAG-positive area and the number of cell nuclei, the sum total of values obtained in 5 viewing fields/well was determined. The values were employed as a value for the MAG-positive area and a value for the number of cell nuclei, respectively, in each well. Subsequently, a value determined by dividing the value for the MAG-positive area in each well by the value for the number of cell nuclei in the well (i.e., MAG/cell nuclei numerical value) was calculated. The Schwann cell differentiation promotion rate was determined for each of the vehicles in accordance with the following formula. […]

CC(C)OC(=O)CCc1ccccc1OCC[C@@H](O)/C=C/c1cccc(NS(=O)(=O)c2ccccc2)c1 [Example 10, Propan-2-yl 3-[2-[(E,3R)-5-[3-(benzenesulfonamido)phenyl]-3-hydroxypent-4-enoxy]phenyl]propanoate]
activity at 0.3 µM: 86.2% | activity at 3 µM: 593%

O=C(O)CCc1ccccc1OCC[C@@H](O)/C=C/c1ccccc1NC(=O)c1ccccc1 [Example 12(5), 3-[2-[(E,3R)-5-(2-Benzamidophenyl)-3-hydroxypent-4-enoxy]phenyl]propanoic acid]
activity at 0.3 µM: 147% | activity at 3 µM: 234%

O=C(O)CCc1ccccc1OCC[C@@H](O)/C=C/c1cccc(NCc2ccccc2)c1 [Example 12(6), 3-[2-[(E,3R)-5-[3-(Benzylamino)phenyl]-3-hydroxypent-4-enoxy]phenyl]propanoic acid]
activity at 0.3 µM: 144% | activity at 3 µM: 435%

O=C(O)CCc1ccccc1OCC[C@@H](O)/C=C/c1cccc(S(=O)(=O)Nc2ccccc2)c1 [Example 12(7), 3-[2-[(E,3R)-3-Hydroxy-5-[3-(phenylsulfamoyl)phenyl]pent-4-enoxy]phenyl]propanoic acid]
activity at 0.3 µM: 111% | activity at 3 µM: 379%

O=C(O)CCc1ccccc1OCC[C@@H](O)/C=C/c1cccc(C(=O)Nc2ccccc2)c1 [Example 12(8), 3-[2-[(E,3R)-3-Hydroxy-5-[3-(phenylcarbamoyl)phenyl]pent-4-enoxy]phenyl]propanoic acid]
activity at 0.3 µM: 158% | activity at 3 µM: 459%

O=C(O)CCc1ccccc1OCC[C@@H](O)/C=C/c1ccccc1CNS(=O)(=O)c1ccccc1 [Example 12(11), 3-[2-[(E,3R)-5-[2-(Benzenesulfonamidomethyl)phenyl]-3-hydroxypent-4-enoxy]phenyl]propanoic acid]
activity at 0.3 µM: 203% | activity at 3 µM: 505%

O=C(O)CCc1ccccc1OCC[C@@H](O)/C=C/c1ccc2c(c1)CN(S(=O)(=O)c1ccccc1)CC2 [Example 13(19), 3-[2-[(E,3R)-5-[2-(Benzenesulfonyl)-3,4-dihydro-1H-isoquinolin-7-yl]-3-hydroxypent-4-enoxy]phenyl]propanoic Acid]
activity at 0.3 µM: 142% | activity at 3 µM: 598%

O=C(O)CCc1ccccc1OCC[C@@H](O)/C=C/c1cccc(C[C@H](O)c2ccccc2)c1 [Example 26, 3-[2-[(E,3R)-3-Hydroxy-5-[3-[(2S)-2-hydroxy-2-phenylethyl]phenyl]pent-4-enoxy]phenyl]propanoic acid]
activity at 0.3 µM: 196% | activity at 3 µM: 439%

O=C(O)CCc1ccccc1OCC[C@@H](O)/C=C/c1cccc(C(O)CCc2ccccc2)c1 (stereo partly drawn) [Example 28, 3-[2-[(E,3R)-3-Hydroxy-5-[3-(1-hydroxy-3-phenylpropyl)phenyl]pent-4-enoxy]phenyl]propanoic acid]
activity at 0.3 µM: 188% | activity at 3 µM: 628%

O=C(CCc1ccccc1OCC[C@@H](O)/C=C/c1cccc(NS(=O)(=O)c2ccccc2)c1)N1CCOCC1 [Example 32(1), N-[3-[(E,3R)-3-Hydroxy-5-[2-(3-morpholin-4-yl-3-oxopropyl)phenoxy]pent-1-enyl]phenyl]benzenesulfonamide]
activity at 0.3 µM: 408%

CN(C)C(=O)CCc1ccccc1OCC[C@@H](O)/C=C/c1cccc(NS(=O)(=O)c2ccccc2)c1 [Example 32(2), 3-[2-[(E,3R)-5-[3-(Benzenesulfonamido)phenyl]-3-hydroxypent-4-enoxy]phenyl]-N,N-dimethylpropanamide]
activity at 0.3 µM: 340% | activity at 3 µM: 788%

O=C(O)CCc1ccccc1OCC[C@@H](O)C1CC1c1cccc(NS(=O)(=O)c2ccccc2)c1 (stereo partly drawn) [Example 39, 3-[2-[(3R)-3-[2-[3-(Benzenesulfonamido)phenyl]cyclopropyl]-3-hydroxypropoxy]phenyl]propanoic acid]
activity at 0.3 µM: 211% | activity at 3 µM: 323%
